The source of these data is patent publication US6350773B1, “Therapeutic combinations of (S)-2-(benzylamino-methyl)-2,3,8,9,-tetrahydro 7H-1,4-dioxino{2,3-e}indol-8-one and neuroleptics for the treatment or prevention of psychotic disorders” (American Home Products Corporation, priority 1999, dated 2002).

Data set [1] has as its system haloperidol-induced catalepsy in rats. Put plainly: Reversal of haloperidol-induced catalepsy in rats. It counts as in vivo, Sprague-Dawley rats. The following applies: haloperidol 3 mg/kg i.p. The protocol:
FIG. 1 is a schematic representation of the effect of (S)-2-(benzylaminomethyl)-2,3,8,9-tetrahydro-7H-1,4-dioxino[2,3-e]indol-8-one (agent) on haloperidol-induced catalepsy in rats at 60 minutes after drug treatment, the time point of greatest reversal as measured by seconds spent in catelepsy over a dose range of 0.003 to 3 mg/kg s.c. of agent. The data are means±SEM.
Tests for reversal of haloperidol-induced catalepsy in rats were conducted according to a variation of the methods of Svensson et al., Neuropharmacology, 1993, 32:1037-1045. Rats (200-250 g) were transported from the colony room to the experimental room and held there for the duration of the experiment. Haloperidol, dissolved in 0.25% Tween 80®, was administered to all animals at a dose of 3 mg/kg i.p. Sixty minutes later, (S)-2-(benzylamino-methyl)-2,3,8,9-tetrahydro-7H-1,4-dioxino[2,3-e]indol-8-one, also dissolved in 0.25% Tween 80®, was administered s.c. at 4 dose levels to 6 male Sprague-Dawley rats per dose level. A control group, assessed simultaneously with (S)-2-(benzylamino-methyl)-2,3,8,9-tetrahydro-7H-1,4-dioxino[2,3-e]indol-8-one treated groups, received a vehicle (VEH) injection of 0.25% Tween 80® at equal volumes (1 ml/kg). Animals were assessed for catalepsy at 30, 60, 90 and 120 minutes after drug administration by placing the animal's forepaws on a wooden cube (8×8×8 cm). The time that the animal remained with at least one of the forepaws on the cube was measured (maximum=60 sec). The righting reflex was then tested and used to discard sedated subjects. Data were analyzed using a two-factor analysis of variance with one repeated measure. A subsequent least significant difference from control test (p<0.05) was used to determine the minimal effective dose (MED) for reversing haloperidol-induced catalepsy and to determine time of onset. A trend test was then used to determine at which time points (if any) there was a dose-related effect. […]

The next data set relates to catalepsy in rats. Briefly: Cataleptogenic potential in rats (no haloperidol). It counts as in vivo. To be noted: 0.003 to 3 mg/kg s.c., 60 min post dosing, similar at the other time points.
Data set [2] has as its system d-amphetamine induced hyperactivity in mice. Briefly: Antagonism of d-amphetamine-induced hyperlocomotion in mice. The format is in vivo. The following applies: d-amphetamine 2.5 mg/kg i.p. The protocol: FIG. 3 is a schematic representation of the effect of (S)-2-(Benzylamino-methyl)-2,3,8,9-tetrahydro-7H-1,4-dioxino[2,3-e]indol-8-one (agent) to reverse d-amphetamine induced hyperactivity in mice. The data are expressed as a percentage of the activity level (horizontal activity counts) observed in mice treated with d-amphetamine alone for eight doses ranging from 0.0001 to 1 mg/kg s.c. of agent. The data are presented as means±SEM.
The ability to antagonize amphetamine-induced hyperlocomotion was tested according to a modified version of the methods of Riffee and Wilcox, Psychopharmacology, 1985, 85:97-101. Mice (25-30 g) were transported from the colony room to the experimental room and held there for the duration of the experiment. […] Control groups, assessed simultaneously with drug-treated groups, received vehicle at equal volumes (10 ml/kg). […] Activity was monitored for 30 minutes with lights on using Omnitech Digiscan® (Columbus, Ohio) infrared monitors. Each infrared beam break was counted by the automated system and totaled at 10 minute intervals. […]
FIG. 3 is a schematic representation of the effect of (S)-2(Benzylamino-methyl)-2,3,8,9-tetrahydro-7H-1,4-dioxino[2,3-e]indol-8-one (agent) to reverse d-amphetamine induced hyperactivity in mice. The data are expressed as a percentage of the activity level observed in mice treated with d-amphetamine alone and are presented as means±SEM.

Regarding `O=C1Cc2c(ccc3c2O[C@@H](CNCc2ccccc2)CO3)N1` [(S)-2-(benzylamino-methyl)-2,3,8,9-tetrahydro-7H-1,4-dioxino[2,3-e]indol-8-one], the ED50 (commonly the dose that gives a 50% effect, or the effect in half of the subjects) in data set [1] (Rattus norvegicus, 1 h, agent s.c., 60 minutes after drug treatment (time point of greatest reversal), read-out: ED50 (dose producing 50% reduction in maximal response), reversal of haloperidol-induced catalepsy) is 0.08 mg/kg; in data set [2] (Mus musculus, agent s.c., horizontal activity counts 10-20 min, read-out: ED50 (dose producing 50% reduction in activity), d-amphetamine-induced hyperactivity), 0.002 mg/kg. The “time spent in catalepsy position” value in data set [1] (agent 0.003 to 3 mg/kg s.c., 60 minutes after drug treatment) was “dose-dependent decrease”. Moreover, the “MED (minimal effective dose) for reversing haloperidol-induced catalepsy” value in data set [1] (agent s.c. 60 min later, 60 minutes after drug treatment) was 0.3 mg/kg. Also, the “ability to induce catalepsy” value in the data set on catalepsy in rats is given as “lack of ability of the agent to induce significant catalepsy”. The “d-amphetamine-induced hyperactivity (horizontal activity counts, % of d-amphetamine alone)” value in data set [2] (agent 0.0001 to 1 mg/kg s.c.) is “dose-dependent decreased”.
